These results are taken from patent US5486597A, “Tetrapeptide derivatives and analogues” (James Black Foundation Limited, priority 1990, dated 1996).

What all share (format): cell-based
Test [1] deals with T1, cholecystokinin receptors (Cavia porcellus, UniProt Q63931).
T1 construct: Isolated, strip preparations were prepared from gall-bladders removed from male Dunkin-Hartley guinea-pigs; from tissue; host or cells: guinea-pig gall-bladder strips
T1 sequence (Q63931 1-430): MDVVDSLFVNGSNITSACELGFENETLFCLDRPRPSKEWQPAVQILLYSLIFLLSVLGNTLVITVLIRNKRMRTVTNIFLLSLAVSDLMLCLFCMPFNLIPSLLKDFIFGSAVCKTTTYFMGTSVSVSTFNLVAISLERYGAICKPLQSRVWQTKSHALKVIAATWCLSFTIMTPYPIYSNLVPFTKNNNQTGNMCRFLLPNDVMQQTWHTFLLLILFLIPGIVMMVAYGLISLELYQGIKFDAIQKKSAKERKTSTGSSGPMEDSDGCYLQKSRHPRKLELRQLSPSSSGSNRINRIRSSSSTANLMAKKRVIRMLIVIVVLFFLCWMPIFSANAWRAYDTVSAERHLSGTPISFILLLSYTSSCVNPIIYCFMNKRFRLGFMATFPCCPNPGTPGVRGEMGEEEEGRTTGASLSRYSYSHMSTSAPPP
Briefly: CCK-antagonist activity in isolated guinea-pig gall-bladder strip preparations. The settings on record: guinea-pig gall-bladder strips; CCK-8 as agonist; test compound incubated for 60 minutes; standard errors less than 5%. As to the method: The compounds of the invention were also assayed for CCK-antagonist activity as follows:
Isolated, strip preparations were prepared from gall-bladders removed from male Dunkin-Hartley guinea-pigs (250-500 g body weight) according to the method of La Morte, W. W., et al., J.P.E.T., 217, (3), 638-644 (1981).
The complete gall-bladder is removed and opened along the longitudinal axis. Strips measuring 3 mm in the longitudinal axis and 1 mm in the transverse axis are cut and then tied with cotton to stainless steel wires. The preparation is connected to a GRASS FTO3 isometric transducer under an initial loading tension of 1 g and is immersed in 20 mls of Krebs solution maintained at 37° C. and gassed with 95% O2 /5% CO2. The Krebs solution is as detailed above in connection with the fundus assay, except that the Ca^2+ concentration is decreased to 0.5 mM. After 30 mins the preparation is washed. Drug addition begins after an initial 90 min stabilisation period. Responses are measured as changes in tension from that immediately prior to any drug addition. Single cumulative agonist concentration-effect curves, using CCK-8 as agonist, are obtained on each preparation in the absence and presence of test compound which has been incubated for 60 minutes. The antagonist activity of the test compound is estimated and expressed as the negative logarithm (base 10) of the equilibrium dissociation constants (pK8) using the modifications of standard competitive analysis described by Black et al., Br. J. Pharmacol.,86,571-579, (1985) and Shankley et al., Br. J. Pharmacol.,94,264-274 (1988).

Test [2] deals with T2, gastrin receptor (Cavia porcellus, UniProt H0VZC5).
T2 construct: Strips of muscle (approximately 2.5 cm by 1 cm) are removed from the proximal area of the stomach; from tissue; host or cells: guinea-pig proximal stomach (fundus) muscle strips
T2 sequence (H0VZC5 1-426): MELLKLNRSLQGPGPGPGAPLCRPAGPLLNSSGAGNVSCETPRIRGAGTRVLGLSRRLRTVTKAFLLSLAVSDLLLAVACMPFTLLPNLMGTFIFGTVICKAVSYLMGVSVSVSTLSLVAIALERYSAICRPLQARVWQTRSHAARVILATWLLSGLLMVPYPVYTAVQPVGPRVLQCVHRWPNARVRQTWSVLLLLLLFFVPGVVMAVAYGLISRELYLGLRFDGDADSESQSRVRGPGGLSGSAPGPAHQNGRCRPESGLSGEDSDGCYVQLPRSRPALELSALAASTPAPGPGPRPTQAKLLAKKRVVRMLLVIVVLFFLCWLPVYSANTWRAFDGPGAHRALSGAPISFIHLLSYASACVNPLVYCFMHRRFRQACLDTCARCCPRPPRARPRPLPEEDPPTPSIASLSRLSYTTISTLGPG
Briefly: guinea-pig fundus assay for gastrin activity (stomach muscle strips). The settings on record: 10^-8 M devazepide present, 60 minute equilibration, agonist e.g. pentagastrin, standard errors less than 5%. As to the method: The compounds were assayed for gastrin activity using the mouse stomach assay as described by Black, J. W. and Shankley, N. P., Br. J. Pharmacol., 86, 571-579, (1985), and also in the guinea-pig fundus assay, as follows:
The stomach is removed from a male Dunkin-Hartley guinea-pig (250-500 g), and Krebs solution is injected through a hypodermic needle under the top stomach muscle layer. The composition (mM) of the Krebs solution is as follows: Na^+ 143, K^+ 5.9, Ca^2+ 2.5, Mg^2+ 1.2, Cl^- 128, H2 PO4^- 2.2, HCO3^- 24.9, SO4^2- 1.2, dextrose 10. Strips of muscle (approximately 2.5 cm by 1 cm) are removed from the proximal area of the stomach (one from each side) and tied with cotton thread to isotonic transducers under an initial loading tension of 0.35 g.
The preparation is immersed in 20 mls of Krebs solution containing 10^-8 M devazepide (25 μl 2×10^-3 M devazepide/100% DMF solution in 5 dm^3 Krebs) and gassed with 95% O2 /5% CO2. The function of the devazepide is to block possible effects at CCK receptors present in the tissue.
The preparation is washed twice over a 60 minute period then 10 mM KCl is added. At 90 minutes, test compounds (ie. potential antagonists) are added and a further 60 minute equilibration period allowed. After this time, cumulative agonist (e.g. pentagastrin) dose-response curves are constructed.

Test [3] deals with T3, gastrin receptor (Mus musculus, UniProt P56481).
T3 construct: assayed for gastrin activity using the mouse stomach assay; from tissue; host or cells: isolated mouse stomach
T3 sequence (P56481 1-453): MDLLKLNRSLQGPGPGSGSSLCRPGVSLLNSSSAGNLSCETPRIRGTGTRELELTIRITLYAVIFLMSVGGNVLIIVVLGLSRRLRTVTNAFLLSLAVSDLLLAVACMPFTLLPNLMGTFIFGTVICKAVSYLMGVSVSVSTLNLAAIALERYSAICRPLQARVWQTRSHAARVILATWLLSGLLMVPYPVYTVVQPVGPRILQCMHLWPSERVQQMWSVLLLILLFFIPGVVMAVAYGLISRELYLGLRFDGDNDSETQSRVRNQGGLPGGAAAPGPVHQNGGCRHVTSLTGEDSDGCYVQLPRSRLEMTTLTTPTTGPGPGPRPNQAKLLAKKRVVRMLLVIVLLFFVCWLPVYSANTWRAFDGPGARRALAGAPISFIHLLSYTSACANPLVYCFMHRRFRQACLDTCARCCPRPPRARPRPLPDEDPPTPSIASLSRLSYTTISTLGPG
The test is described as follows: mouse stomach assay for gastrin activity (isolated stomach, acid secretion). Particulars: for Acid seretion at 10^-5 M test compound, relative to pentagastrin (%): mouse stomach, NS = not significant. As to the method: The compounds were assayed for gastrin activity using the mouse stomach assay as described by Black, J. W. and Shankley, N. P., Br. J. Pharmacol., 86, 571-579, (1985), and also in the guinea-pig fundus assay, as follows: […]

[4] abbreviates: isolated mouse stomach assay, gastrin antagonism, standard errors less than 5%.

Non-standard residues stand in square brackets, D forms with d. Residues, ends and D or L forms follow the SMILES beside them. *: point of attachment. 1Nal = N[C@@H](Cc1cccc2ccccc12)C(=O)O; 2Nal = N[C@@H](Cc1ccc2ccccc2c1)C(=O)O; d1Nal = N[C@H](Cc1cccc2ccccc12)C(=O)O; d2Nal = N[C@H](Cc1ccc2ccccc2c1)C(=O)O; Phe(ol) = N[C@H](CO)Cc1ccccc1; Boc = CC(C)(C)OC(=O)*; For = O=C*

In general, pKB refers to the negative decadic logarithm of the KB, by convention in mol/L. Low readings indicate a large KB, high ones a small KB. As to `CC(C)(C)OC(=O)N[C@@H](Cc1c[nH]c2ccccc12)C(=O)N[C@@H](Cc1ccc2ccccc2c1)C(=O)N[C@@H](CC(=O)O)C(=O)N[C@@H]1CCC[C@H]1c1ccccc1` (single isomer, unassigned; diastereomer 2) [Example 32, N-t-Butyloxycarbonyl-L-tryptophyl-L-3-(2-naphthyl)alanyl-L-aspartyl-trans-2-phenylcyclopentylamide (diastereomer 2)], the pKB was 6.6 in test [1] and 6.1 on gastrin receptor [2].
`CC(C)(C)OC(=O)N[C@@H](Cc1c[nH]c2ccccc12)C(=O)N[C@H](Cc1ccc2ccccc2c1)C(=O)N[C@@H](CC(=O)O)C(=O)N[C@@H](Cc1ccccc1)C(N)=O` [Example 3, N-t-Butyloxycarbonyl-L-tryptophyl-D-3-(2-naphthyl)alanyl-L-aspartyl-L-phenylalaninamide] (Boc-W[d2Nal]DF-NH2) gave a Kb on gastrin receptor [2] of 2510 nM.
On the same count and under the same terms, to `CC(C)(C)OC(=O)N[C@@H](Cc1c[nH]c2ccccc12)C(=O)N[C@@H](Cc1cccc2ccccc12)C(=O)N[C@@H](CC(=O)O)C(=O)N[C@@H](Cc1ccccc1)C(N)=O` [Example 4, N-t-Butyloxycarbonyl-L-tryptophyl-L-3-(1-naphthyl)alanyl-L-aspartyl-L-phenylalaninamide] (Boc-W[1Nal]DF-NH2) belongs 1580 nM.
For the compound `CC(C)(C)OC(=O)N[C@@H](Cc1c[nH]c2ccccc12)C(=O)N[C@@H](Cc1ccc2ccccc2c1)C(=O)N[C@@H](CC(=O)O)C(=O)N[C@H](CO)Cc1ccccc1` [Example 9, N-t-Butyloxycarbonyl-L-tryptophyl-L-3-(2-naphthyl)alanyl-L-aspartyl-L-phenylalaninol] (Boc-W[2Nal]D[Phe(ol)]), the Kb in test [1] is 1260 nM; on gastrin receptor [2] it was 2510 nM.
The corresponding values for `CC(C)(C)OC(=O)N[C@@H](Cc1c[nH]c2ccccc12)C(=O)N[C@@H](Cc1ccc2ccccc2c1)C(=O)N[C@H](CC(=O)O)C(=O)N[C@@H](Cc1ccccc1)C(N)=O` [Example 12, N-t-Butyloxycarbonyl-L-tryptophyl-L-3-(2-naphthyl)alanyl-D-aspartyl-L-phenylalaninamide] (Boc-W[2Nal][dD]F-NH2) are 39.8 nM and 3160 nM.
For `NC(=O)[C@H](Cc1ccccc1)NC(=O)[C@H](CC(=O)O)NC(=O)[C@H](Cc1ccc2ccccc2c1)NC(=O)[C@H](Cc1c[nH]c2ccccc12)NC=O` [Example 15, N-Formyl-L-tryptophyl-L-3-(2-naphthyl)alanyl-L-aspartyl-L-phenylalaninamide] (For-W[2Nal]DF-NH2) the same measures were 631 nM and 5010 nM.
Take `CC(C)(C)OC(=O)N[C@@H](Cc1c[nH]c2ccccc12)C(=O)N[C@H](Cc1cccc2ccccc12)C(=O)N[C@@H](CC(=O)O)C(=O)N[C@@H](Cc1ccccc1)C(N)=O` [Example 24, N-t-Butyloxycarbonyl-L-tryptophyl-D-3-(1-naphthyl)alanyl-L-aspartyl-L-phenylalaninamide] (Boc-W[d1Nal]DF-NH2): the Kb in test [1] was 316 nM; on gastrin receptor [3] (isolated mouse stomach assay, gastrin antagonism, standard errors less than 5%, read-out: pKB mouse stomach (converted)), 251 nM. In addition, at gastrin receptor [3], the “Acid seretion at 10^-5 M test compound, relative to pentagastrin (%)” value (shortened to “Acid seretion … relative to pentagastrin (%)”) is given as 50%.
For `CC(C)(C)OC(=O)N[C@@H](Cc1c[nH]c2ccccc12)C(=O)N[C@@H](Cc1ccc2ccccc2c1)C(=O)N[C@@H](CC(=O)O)C(=O)N1CCc2ccccc2C1` [Example 26, N-[N-t-Butyloxycarbonyl-L-tryptophyl-L-3-(2-naphthyl)alanyl-L-aspartyl]-1,2,3,4-tetrahydroisoquinolinamide], the pKB in test [1] stood at 6.6; on gastrin receptor [2], 5.5.
The corresponding values for `CCCCOC(=O)N[C@@H](Cc1c[nH]c2ccccc12)C(=O)N[C@@H](Cc1ccc2ccccc2c1)C(=O)N[C@@H](CC(=O)O)C(=O)NCCc1ccccc1C(F)(F)F` [Example 27, N-Butyloxycarbonyl-L-tryptophyl-L-3-(2-naphthyl)alanyl-L-aspartyl-2-trifluoromethylphenethylamide] are 6.5 and 5.8.
In the case of `COc1ccc(CCNC(=O)[C@H](CC(=O)O)NC(=O)[C@H](Cc2ccc3ccccc3c2)N(C)C(=O)[C@H](Cc2c[nH]c3ccccc23)NC(=O)OC(C)(C)C)cc1` [Example 59, N-t-Butyloxycarbonyl-L-tryptophyl-N-methyl-L-3-(2-naphthyl)alanyl-L-aspartyl-4-methoxyphenethylamide], in test [1], the pKB is 6.7. In addition, the pKB mouse stomach at gastrin receptor [3] (setting [4]) worked out at 5.3. Further, the “Acid seretion … relative to pentagastrin (%)” value at gastrin receptor [3] is on record as 20%.
For `CC(C)(C)OC(=O)N[C@@H](Cc1cn(C=O)c2ccccc12)C(=O)N[C@@H](Cc1ccc2ccccc2c1)C(=O)N[C@@H](CC(=O)O)C(=O)N[C@@H](Cc1ccccc1)C(N)=O` [Example 60, N-t-Butyloxycarbonyl-L-N^in-formyltryptophyl-L-3-(2-naphthyl)alanyl-L-aspartyl-L-phenylalaninamide] (Boc-W(For)[2Nal]DF-NH2) the same measures were 6.4, 5.3 and 20%.
On to “N-t-Butyloxycarbonyl-L-tryptophyl-L-3-(2-naphthyl)alanyl-L-aspartyl]-3-azaspiro[5.4]decylamide [Example 62]”, for which the pKB at gastrin receptor [2] is 5.6.
“N-t-benzyloxycarbonyl-β-alanyl-L-tryptophyl-L-3-(2-naphthyl)alanyl-L- aspartyl-L-phenylalaninamide [Example 23]” showed a negative logarithm of the KB (pKB) in test [1] of 5.9. At gastrin receptor [3] (setting [4]), this compound yielded a pKB mouse stomach of 5.5. Moreover, the “Acid seretion … relative to pentagastrin (%)” value on gastrin receptor [3] was 40%.
